From patent US20090068143A1, “ORALLY EFFECTIVE C[…]” (priority 2005, published 2009)

Tests used:
[1] = Stability in aqueous solutions; type: physicochemical; details: 2 mg/ml in phosphate buffer (pH 7.0), 4° C.
Procedure: Stability of compounds of the invention in aqueous solutions was compared. Compounds were dissolved in buffer phosphate solutions and their concentration monitored using HPLC and spectrophotometer methodology. While compound 18F at concentration of 2 mg/ml in phosphate buffer (pH 7.0) was stable for at least 3 months at 4° C., compound 18B at concentration of 95 μg/ml in citrate buffer (pH 7.1) readily hydrolyzed in less than 24 hours at 4° C. Therefore, compounds that were designed following the same rational yielded unexpectedly divergent outcome, for instance in connection with stability in aqueous solutions.

[2] = test system: CB1; test: Real-time RT-PCR gene expression in CNS of MOG induced EAE: CB1; type: in vivo, mouse; details: 40 mg/kg p.o., day 31; over naive animals, normalized to cyclophilin
Procedure: Total RNA is prepared using SV total RNA isolation system (Promega). The brains and spinal cords, which were removed on day 31 from five animals treated with vehicle (i.e. untreated) or 40 mg/kg p.o. of compound 18F (i.e. treated) in the MOG-induced EAE study, were homogenized in lysis buffer. The lysates were transferred to an RNA isolation column, treated with DNAse, washed and eluted according to kit instructions. RNA concentrations were determined using GeneQuant II (Pharmacia-Amersham). Complementary DNA (cDNA) was synthesized from total RNA using […] II reverse transcriptase (Life Technologies). […] Quantitative real-time RT-PCR included 1 μl of the cDNA, 300 nM of the appropriate forward and reverse primers (according to the gene monitored) and 7.5 μl of the reaction mix containing buffer, nucleotides, Taq polymerase and SYBER green (SYBER Green master mix, Applied Biosystems), in a total reaction volume of 15 μl. […] During each annealing step, the amount of the amplified product was measured by the fluorescence of the double strand DNA binding dye, SYBER Green. The cycle of threshold (CT), representing the PCR cycle at which an increase in fluorescence above a baseline signal can be first detected, was determined for each product. […] Results were expressed as fold increase of gene expression in treated or untreated animals above the naive animals. […]

[3] = test system: 400 Gene Array; test: Gene array analysis of spinal cords, MOG induced EAE; type: in vivo, mouse; details: out of the 400 genes tested
Procedure: In an additional study, the gene expression profiling was performed using a 400 Gene Array series kit of SuperArray Bioscience Corporation according to manufacturer protocol and RNA extracted from spinal cords of treated or untreated animals, as above described. The scanned data were converted to mRNA expression levels and analyzed using two softwares, ScanAlayze and GEArray Analyzer. […] The genes so identified will be further analyzed by real time RT-PCR at other time points during disease progression. It is interesting to note that the genes whose expression is altered in MOG induced EAE animals following treatment with compounds of the invention broadly speaking encode for proteins involved in the immune system, such as STAT proteins which are involved in signal transduction of several cytokines and growth factors, JAK kinases, β2-microglobulin, TNF-receptor superfamily, calmodulins, and cyclin-dependent kinases.

[4] = test system: iNOS; test: iNOS protein expression in activated macrophages (western blot); type: cell-based, mouse; details: 1, 5 and 10 μM, 24 hrs after LPS stimulation
Procedure: RAW 264.7 macrophages, a mouse cell line (ATCC # TIB 71), were grown in Dulbecco's modified Eagle's medium (DMEM) with 4 mM L-glutamine adjusted to contain 1.5 g/L sodium bicarbonate, 4.5 g/L glucose, and 10% heat inactivated fetal bovine serum. Cells were grown in tissue culture flasks and seeded at appropriate density into 6 wells tissue culture plates. Four million Raw cells in half a milliliter were stimulated with 1 μg/ml Lipopolysaccharide E. coli 055:B5 (DIFCO Laboratories). The mouse macrophages were pre-treated for one hour with controls or 10 μM of test compounds, and later on activated with LPS. RNA samples were extracted from the cells 3 hrs after activation and iNOS gene expression levels were analyzed by real-time RT-PCR as previously described. For western blot analysis, compounds were tested at 1, 5 and 10 μM and cells were harvested 24 hrs after LPS stimulation. Supernatant were collected and NO secretion was analyzed using ELISA. […]
To assess correlation between gene expression and protein expression, protein extracts were prepared from the various treated activated macrophages. […] Primary antibodies against cyclophilin A were used as control (Upstate, Cat# 07-313), and the amount of iNOS was assessed using NOS2 (C11) Santa Cruz antibodies (Cat# SC-7271) were hybridized for 2 hours at room temperature. […]

[5] = target: CB2 receptor (Homo sapiens, UniProt P34972); test: CB2 binding assay
CB2 receptor, sequence (P34972 whole entry): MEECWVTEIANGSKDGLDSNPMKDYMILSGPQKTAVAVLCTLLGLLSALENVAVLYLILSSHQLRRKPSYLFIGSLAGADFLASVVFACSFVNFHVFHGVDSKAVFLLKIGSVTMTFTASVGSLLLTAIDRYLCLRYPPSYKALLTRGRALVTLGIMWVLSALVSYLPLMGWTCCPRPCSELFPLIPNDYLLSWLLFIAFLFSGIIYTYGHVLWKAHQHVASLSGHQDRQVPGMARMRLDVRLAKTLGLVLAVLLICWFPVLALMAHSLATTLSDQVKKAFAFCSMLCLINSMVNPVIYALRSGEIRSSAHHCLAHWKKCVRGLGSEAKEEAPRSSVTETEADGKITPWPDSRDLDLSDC

[6] = test system: PLP induced remitting-relapsing EAE; test: PLP induced remitting-relapsing EAE

## CCCCCCC(C)(C)c1cc(O)c([C@H]2CC(=O)C3CC2C3(C)C)c(OC(=O)/C=C/C(=O)O)c1 (single isomer, unassigned; (-)) [Compound 18F, (−)-4-{4-[1,1-Dimethylheptyl]-2-fumarate-6-hydroxy-phenyl}-6,6-dimethyl-bicyclo[3.1.1]heptan-2-one]
[1]
  time stable in solution: at least 3 months
[2]
  Fold gene expression CB1, Brain, Treated: 1 fold
  Fold gene expression CB1, Spinal Cord, Treated: 1 fold
[3]
  genes down-regulated or up-regulated by more than 1.5 fold upon treatment: twenty
[4]
  iNOS protein band (western blot): clear dose dependent disappearance of iNOS protein band
[5]
  IC50: 9 nM
[6]; 40 mg/kg p.o. daily for 25 days
  relapse postponed as compared to controls: 5 to 7 days
[6]; 40 mg/kg p.o. daily for 25 days from day 25, controls 0.7 and 0.8
  clinical score of the second peak: 0.5
[6]; 40 mg/kg p.o. for 25 days
  side effects: No side effects were observed
[6]; 40 mg/kg p.o., day 35 to day 58, control 8.1
  AUC of clinical score: 2.1
[6]; 40 mg/kg p.o., day 35 to day 58, p=0.0025
  reduction in AUC as compared to control: 74%
[6]; 40 mg/kg p.o., day 38 till end of study
  average reduction of clinical score: 28%
